Like-named read-outs stand apart in the source and are kept apart here. Values belong to the molecule of their own block, whether it stands above or below them.
Experiments:
[1] = system: normal and tumor cell types; test: Tumor/normal cell screen, panel averages and therapeutic index; format: cell-based, human
Experimental: (§1) J. Growth Inhibition Studies. Cells growing exponentially were transferred to 384-well flat bottom tissue culture plates. All cell types were plated at a density of 500 cells per well in 25 μL of complete medium (RPMI 1640+10% fetal bovine serum+antibiotics/antimycotics). After 24 hours (day 0), 25 μL of complete medium containing the experimental compounds over the dose range of 10^ñ3 to 10^ñ10 M were added in triplicate. Drug exposure time was 120 hours (day 5), after which growth inhibition was assayed. 5 μL of the redox indicator, alamarBlue, was added to each well (10% v/v). After 4 hours incubation at 37° C., fluorescence was monitored at 535 nm excitation and 595 nm emission.
(§2) Concentration vs. relative fluorescence units (RFU) were plotted, and sigmoid curves were fit using the Hill equation.
Assays were carried out as described in Methods, above. Therapeutic index is calculated as the ratio of the average IC50 for normal cells to the average IC50 for tumor cells. All assays were done at least three times.

[2] = system: MCF7 TDX Tomudex-resistant breast cancer cells; test: alamarBlue growth inhibition, MCF7 TDX; format: cell-based; conditions: Homo sapiens
Experimental: as §1, §2
(§3) O. Reversal of Resistance. The origin and characteristics of the human breast cancer MCF7 TDX cell line have been previously described (Drake, et al. (1996) Biochem. Pharmcol. 51(10): 1349-1355). Briefly, MCF-7 breast cancer cells were selected in vitro for resistance to Tomudex by continuous exposure to stepwise increases in TDX concentrations up to 2.0 μM.

[3] = system: MCF7 (Breast) tumor cells; test: alamarBlue growth inhibition, MCF7; format: cell-based; conditions: Homo sapiens
Experimental: as §1, with “Drug exposure time was 120 hours (day 5), after which growth inhibition was assayed.” left out
as §2

[4] = system: TSL/HT1080 cells (TS Level 702%); test: alamarBlue growth inhibition, HT1080 clone with TS level 702%; format: cell-based; conditions: Homo sapiens, HT-1080, TSL/HT1080 (second line)
Experimental: (§4) F. Cell lines and transfection. HT1080 cells were grown in PRMI1640 medium supplemented with 10% fetal calf serum, and transfected with GFP-TS expression vector. 48 hours after, transfection cells were tripsinized and replated in culture medium containing 750 μg/ml G418. After selection with G418 for two weeks, surviving cells were sorted based upon fluorescence expression. One clone with higher fluorescence expression (named as TSH/HT1080) and one clone with lower fluorescence expression (named as TSL/HT1080) were selected and expanded into cells lines. The stable HT1080 cells transfected with pEGFP-C3 were used as control.
(§5) G. Construction of GFP-TS expression vector. […]
(§6) J. Growth Inhibition Studies. […] After 4 hours incubation at 37° C., fluorescence was monitored at 535 nm excitation and 595 nm emission.
as §2
(§7) A cDNA encoding rHuTS was subcloned into ventor pEGFP-C3, in-frame with GFP. […] Individual cells were cloned based upon high or low fluorescence expression as described in Methods. *TS levels were determined by using Western blot analysis, the quantified expression levels were expressed as values relative to that of cell strain CCD18co.

[5] = system: CCD18co normal colon epthelial cell; test: Thymidine rescue, alamar blue; format: cell-based, human; conditions: for rescue by thymidine: 10 uM thymidine; for IC50: Homo sapiens, CCD-18Co
From the text: An additional approach was taken to understanding whether NB1011 might interfere with cell growth primarily by inactivating TS. This approach is based upon thymidine rescue of TS-blocked cells. […] For this reason, they survive only by scavenger mechanisms. One of the important scavenger mechanisms is utilization of extracellular thymidine. Thymidine incorporated by target cells can be converted to dTMP, usually by thymidine kinase, and thus continue DNA synthesis. Other pathways for use of exogenous thymidine have also been described If an important mechanism for NB1011 activity is via inhibition of endogenous TS, then the cytotoxicity should be relieved when thymidine is added to the cell culture media. For this experiment, a number of tumor cell lines were screened for their sensitivity to Tomudex and 5FdUrd, and ability to be rescued from these agents via thymidine supplementation. […] Experiments were carried out as described by (Patterson, et al. (1998) Cancer Res. 58: 2737-2740) with or without 10 uM thymidine, except that the alamar blue assay (see Materials and Methods) was employed to determine cytotoxicity.

rHuTS [6] = target: T1, rHuTS (Homo sapiens, UniProt P04818); test: Inhibition of rHuTS reactions by Tomudex and 5-FdUMP; format: biochemical; conditions: for activity at 0.5 µM: read-out: rate as % of No Inhibitor
T1 construct: His tag (N); made in house; host or cells: E. coli BL21 (DE3), pET-28a(+)
T1 sequence (P04818 whole entry): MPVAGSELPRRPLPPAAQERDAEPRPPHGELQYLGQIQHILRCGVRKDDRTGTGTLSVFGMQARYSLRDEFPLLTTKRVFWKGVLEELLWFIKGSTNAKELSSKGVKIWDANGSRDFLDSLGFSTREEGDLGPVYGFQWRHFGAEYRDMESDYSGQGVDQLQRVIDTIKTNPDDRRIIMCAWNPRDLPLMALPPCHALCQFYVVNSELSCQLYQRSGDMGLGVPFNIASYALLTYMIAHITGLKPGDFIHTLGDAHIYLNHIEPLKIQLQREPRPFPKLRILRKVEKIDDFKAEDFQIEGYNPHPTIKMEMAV
Experimental: M. Enzyme Assays and Kinetic Measurements. Thymidylate synthase assays were done in 96 well Costar UV transparent plates in a reaction volume of 200 μl, consisting of 40 mM Tris pH 7.5, 25 mM MgCl2, 1 mM EDTA, 25 mM-mercaptoethanol, 125 µM dUMP, and 65 μM N5, N1O-methylene tetrahydrofolate indicated. Tetrahydrofolate stock solutions were prepared by dissolving tetrahydrofolic acid (Sigma) directly into 0.2 M Tris pH 7.5, 0.5 M-mercaptoethanol; stock solutions were stored at −80° C. N5, N10-methylene tetrahydrofolate was prepared by adding 12 μl of 3.8% formaldehyde to 1 ml of a 0.65 mM solution of tetrahydrofolate and incubating for 5 minutes at 37° C. N5, N10-methylene tetrahydrofolate was kept on ice and used within 2 hours of preparation.
Conversion of BVdUMP to fluorescent product(s) by thymidylate synthase was measured in 200 µl thymidylate synthase reactions containing 125 µM BVdUMP in 96 well Dynex Microfluor Black “U” bottom microtiter plates using an excitation wavelength of 340 nm and emission wavelength of 595 nm. Fluorescence was measured with a Tecan Spectrafluor Plus fluorimeter.
Inhibition of rHuTS reactions by Tomudex and 5-FdUMP. Thymidylate synthase reactions containing enzyme inhibitors or cofactor were incubated at 30° C. as described in Materials and Methods, and the initial rates of the enzyme reaction were determined by measuring the increase in relative fluorescence units at 340 nm excitation, 595 nm emission for the BVdUMP reactions, or increase in A340 for the dUMP reaction.

C/HT1080 cells = test: alamarBlue growth inhibition, C/HT1080 control; format: cell-based; conditions: Homo sapiens, HT-1080; C/HT1080, TS Level 100%
Experimental: as §4, §5, §6, §2, §7

MCF7 TDX/1011 cells = test: alamarBlue growth inhibition, MCF7 TDX/1011; format: cell-based; conditions: Homo sapiens
Experimental: as §1, §2, §3

rHuTS [7] = target: T1, rHuTS; test: Impact of folate inhibitors, cell-free rHuTS substrate utilization; format: biochemical; conditions: for remaining activity: MTX 140 μM, LV 140 μM or TDX 5 μM
Experimental: M. Enzyme Assays and Kinetic Measurements. […] Tetrahydrofolate stock solutions were prepared by dissolving tetrahydrofolic acid (Sigma) directly into 0.2 M Tris pH 7.5, 0.5 M-mercaptoethanol; stock solutions were stored at −80° C. […] N5, N10-methylene tetrahydrofolate was kept on ice and used within 2 hours of preparation.
Cell-free assays using rHuTS, the appropriate substrate and other components were combined as described in Methods. […] Utilization of substrate (either BVdUMP or THF) was employed as a measure of reaction rate. The numbers indicate remaining activity.

[8] = system: TSL/HT1080 cells (GFP-TS, lower expression); test: alamarBlue growth inhibition, TSL/HT1080; format: cell-based; conditions: Homo sapiens, HT-1080; TSL/HT1080, TS Level 409%
Experimental: as §4, §5, §6, §2, §7

[9] = system: H630R10 5FU-resistant colon tumor cells; test: alamarBlue growth inhibition, H630R10; format: cell-based, human
Experimental: as §1, with “Drug exposure time was 120 hours (day 5), after which growth inhibition was assayed.” left out
as §2

[10] = target: T2, recombinant human thymidylate synthase (rHuTS) (Homo sapiens, UniProt P04818); test: Enzyme kinetics of rHuTS with dUMP and BVdUMP; format: biochemical
T2 construct: His tag (N); made in house; host or cells: E. coli BL21 (DE3), pET-28a(+)
T2 sequence (P04818 whole entry): as above
Experimental: L. Enzyme Preparation. Cloned human thymidylate synthase plasmid pBCHTS was subcloned into E. coli. BL21 (DE3)/pET-28a(+) (Novagen) using the NdeI ñSacI insertion site, in order to add an amino terminal His tag. […] M. Enzyme Assays and Kinetic Measurements. […] Tetrahydrofolate stock solutions were prepared by dissolving tetrahydrofolic acid (Sigma) directly into 0.2 M Tris pH 7.5, 0.5 M-mercaptoethanol; stock solutions were stored at -80° C. […] N5, N10-methylene tetrahydrofolate was kept on ice and used within 2 hours of preparation. […] The catalytic efficiency of the enzyme (Kcat/Km) was calculated from the kinetic constants Km and Vmax.

[11] = BVdUMP − THF, inhibitor 500 nM, relative fluorescence units

Structure (SMILES): O=c1[nH]cc(F)c(=O)[nH]1 [5FU, 5-fluorouracil]
more toxic to normal cells than to tumor cells ([1]; overall): 3 fold
Therapeutic index (N/T) ([1]; ratio of average IC50 normal cells to average IC50 tumor cells): 0.30
IC50 [2]: 32 µM
IC50 [3]: 10 µM
IC50 [4]: 3.5 µM

initial rate of rHuTS reaction (rHuTS [6]; BVdUMP + THF, inhibitor 500 nM): 67 ± 3 RFU/min
activity at 0.5 µM (rHuTS [6]; BVdUMP + THF, inhibitor 500 nM): 61%
activity at 0.5 µM (rHuTS [6]; BVdUMP − THF, inhibitor 500 nM): 45%
initial rate of rHuTS reaction (rHuTS [6]; [11]): 34 ± 3
initial rate of rHuTS reaction (rHuTS [6]; dUMP + THF, inhibitor 500 nM): 690 ± 40 nmol/min
activity at 0.5 µM (rHuTS [6]; dUMP + THF, inhibitor 500 nM): 46%
IC50 (C/HT1080 cells): 3.6 µM
IC50 (MCF7 TDX/1011 cells): 0.041 µM
remaining activity (rHuTS [7]; BVdUMP, w/o THF): 25%
remaining activity (rHuTS [7]; BVdUMP, with THF): 0%
remaining activity (rHuTS [7]; dUMP, with THF): 18%
IC50 [8]: 24 µM
IC50 [2]: > 10 µM
IC50 [3]: 0.026 µM
IC50 [4]: 153 µM
Structure (SMILES): Cc1nc2ccc(CN(C)c3ccc(C(=O)N[C@@H](CCC(=O)O)C(=O)O)s3)cc2c(=O)[nH]1 [Tomudex]
rescue by thymidine [5]: 15 fold
IC50 ([5]; with 10 uM thymidine): 0.095 µM
IC50 ([5]; without thymidine): 0.0065 µM

Structure (SMILES): O=c1[nH]c(=O)n([C@H]2C[C@H](O)[C@@H](CO)O2)cc1F [5FUdR, 5-fluoro-2′-deoxyuridine]
rescue by thymidine [5]: greater than 590 fold
more toxic to normal colon cells (CCD18co) than to 5FU-resistant H630R10 tumor cells [9]: about 18 fold

remaining activity (rHuTS [7]; BVdUMP, w/o THF): 97%
remaining activity (rHuTS [7]; BVdUMP, with THF): 17%
remaining activity (rHuTS [7]; dUMP, with THF): 77%
Structure (SMILES): Nc1nc2c(c(=O)[nH]1)N(C=O)C(CNc1ccc(C(=O)N[C@@H](CCC(=O)O)C(=O)O)cc1)CN2 (stereo partly shown) [LV, 5-formyltetrahydrofolate]

initial rate of rHuTS reaction (rHuTS [6]; BVdUMP + THF, inhibitor 500 nM): 44 ± 2 RFU/min
initial rate of rHuTS reaction (rHuTS [6]; [11]): 93 ± 13
initial rate of rHuTS reaction (rHuTS [6]; dUMP + THF, inhibitor 500 nM): 290 ± 70 nmol/min
Structure (SMILES): O=c1[nH]c(=O)n([C@H]2C[C@H](O)[C@@H](COP(=O)(O)O)O2)cc1F [5-FdUMP]

initial rate of rHuTS reaction (rHuTS [6]; dUMP + THF, No Inhibitor, A340): 1500 ± 20 nmol/min
Structure (SMILES): O=c1ccn([C@H]2C[C@H](O)[C@@H](COP(=O)(O)O)O2)c(=O)[nH]1 [dUMP, Deoxguridine Monophosphate]

type of inhibition with dUMP in rHuTS ([10]; 20 μM BVdUMP, dUMP 10 to 100 μM): competitive
increase in catalytic efficiency of BVdUMP conversion, human enzyme vs L. casei enzyme ([10]; relative to endogenous substrate dUMP): > 6.4 fold
initial rate of rHuTS reaction (rHuTS [6]; BVdUMP + THF, No Inhibitor, 30° C.): 109 ± 16 RFU/min
initial rate of rHuTS reaction (rHuTS [6]; BVdUMP − THF, No Inhibitor, relative fluorescence units): 75 ± 11
substrate utilization rate relative to reaction with THF (rHuTS [7]; BVdUMP, w/o THF, Inhibitor None): 138%
Structure (SMILES): O=c1[nH]c(=O)n([C@H]2C[C@H](O)[C@@H](COP(=O)(O)O)O2)cc1/C=C/Br [BVdUMP, (E)5-(2-Bromovinyl)-2′-deoxyuridine 5′-monophosphate]
